As a reminder, the IC50 is the concentration needed to halve the response being measured. Low values mean higher potency, high ones lower potency.

The target of assay [1] is T1, KMT9 (Homo sapiens, UniProt Q9Y5N5).
T1 sequence (Q9Y5N5 1-214): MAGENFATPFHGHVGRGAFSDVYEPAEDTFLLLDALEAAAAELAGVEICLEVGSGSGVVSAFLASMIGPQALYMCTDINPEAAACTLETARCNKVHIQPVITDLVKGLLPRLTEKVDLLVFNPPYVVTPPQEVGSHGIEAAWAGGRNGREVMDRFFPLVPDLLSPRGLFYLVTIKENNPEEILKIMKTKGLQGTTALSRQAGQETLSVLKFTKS
T1 sequence (Q9UI30 1-120 isoform Q9UI30-2 partner): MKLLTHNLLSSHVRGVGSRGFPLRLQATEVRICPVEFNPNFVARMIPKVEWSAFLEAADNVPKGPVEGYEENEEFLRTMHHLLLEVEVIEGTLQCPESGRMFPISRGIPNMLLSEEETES
The assay can be described thus: KMT9 methyltransferase inhibition assay, 3H-SAM scintillation (entries 1-154). The assay is classed as biochemical. The settings on record: entries 1-154: 3H-SAM assay, 25 nM KMT9, 5 μM ETF1. A digest of the protocol: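 Tritium transfer from SAM (0.3 μM 3H-SAM, 0.7 μM unlabelled, final) to 5 μM ETF1 fragment by 25 nM KMT9 was measured after 2 h at 30° C, pH 8.5. Precipitated peptide was collected on filters and scintillation counted; IC50 came from a four-parameter fit of inhibition normalised to controls.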

Assay [2] deals with T1, KMT9. The assay can be described thus: Microscale thermophoresis (MST) KMT9 binding. The settings on record: microscale thermophoresis, His-tag labelled KMT9 (20 nM); read-out: MST. A digest of the protocol: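 Kd from microscale thermophoresis: compound series against 20 nM His-KMT9 labelled via RED-Tris-NTA, buffer 25 mM HEPES (pH 7.5)/100 mM NaCl/1 mM DTT/0.05% Tween, 40% MST power, 100% LED. Reported as classes: A ≤10 nM, B >10–100 nM, C >100–1000 nM, D >1000 nM.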
(In general: In MST a laser heats a spot of the sample, and binding alters the fluorescence response.)

The target in assay [3] is T1, KMT9. The assay can be described thus: KMT9 thermal shift assay (SyproOrange). The assay is classed as binding. The settings on record: ΔTm; 500 µM compound, 2 μM KMT9, 5X SO; read-out: Thermal shift. A digest of the protocol: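 ΔTm versus DMSO-only control is reported in bins (>20 K, 15–20 K, 10–15 K, ≤10 K), using Tm from Boltzmann sigmoidal fits of SyproOrange melt curves. KMT9 with compound in pH 8.5 BTP buffer containing MgCl2 and DTT was preincubated at 25° C, then ramped 1° C per 15 s up to 95° C.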

`CNc1ncnc2c1ccn2[C@@H]1C[C@H](CN(CCCNCCc2ccccc2)c2cncs2)[C@@H](O)[C@H]1O` [439 (311), (1R,2S,3R,5R)-3-(4-(Methylamino)-7H-pyrrolo[2,3-d]pyrimidin-7-yl)-5-(((3-(phenethylamino)propyl)(thiazol-5-yl)amino)methyl) cyclopentane-1,2-diol] displayed a half-maximal inhibitory concentration (IC50) in assay [1] of 1 to 10 µM. For the same compound, the Kd in assay [2] was over 1 µM. Further, in assay [3], the ΔTm at 500 µM was at most 10 °C.

For the compound `CNc1ncnc2c1ccn2[C@@H]1C[C@H](C(=O)NCCCNCCc2ccc(Oc3ccc(Cl)cc3)c(F)c2)[C@@H](O)[C@H]1O` [355 (259), (1S,2R,3S,4R)—N-(3-((4-(4-chlorophenoxy)-3-fluorophenethyl)amino)propyl)-2,3-dihydroxy-4-(4-(methylamino)-7H-pyrrolo[2,3-a]pyrimidin-7-yl) cyclopentane-1-carboxamide], in assay [1], the IC50 is 0.1 to 1 µM. In addition, the Kd in assay [2] is 0.1 to 1 µM. The ΔTm at 500 µM in assay [3] was 10 to 15 °C.

In assay [1], `CNc1ncnc2c1ccn2[C@@H]1C[C@H](CN(CCCNCCc2ccc3ccccc3c2)CC(F)(F)F)[C@@H](O)[C@H]1O` [377 (281), (1R,2S,3R,5R)-3-(4-(methylamino)-7H-pyrrolo[2,3-d]pyrimidin-7-yl)-5-(((3-((2-(naphthalen-2-yl)ethyl)amino)propyl)(2,2,2-trifluoroethyl)amino)methyl) cyclopentane-1,2-diol] registered a half-inhibitory concentration (IC50) of over 10 µM. The Kd in assay [2] was over 1 µM. Further, the ΔTm at 500 µM in assay [3] was at most 10 °C.

Compound `Nc1ncnc2c1c(-c1ccn(S(=O)(=O)c3ccccc3)n1)cn2[C@@H]1C[C@H](CNCCCNCCc2ccccc2)[C@@H](O)[C@H]1O` [Compound 604, (1R,2S,3R,5R)-3-(4-Amino-5-(1-(phenylsulfonyl)-1H-pyrazol-3-yl)-7H-pyrrolo[2,3-d]pyrimidin-7-yl)-5-(((3-(phenethylamino)propyl)amino)methyl)cyclopentane-1,2-diol] gave an IC50 in assay [1] of under 0.1 µM. Further, in assay [2], the Kd is at most 0.01 µM. In assay [3], the ΔTm at 500 µM fell in the range of 15 to 20 °C.

In assay [1], `CNc1ncnc2c1ccn2[C@@H]1C[C@H](Cn2ccnc2CCCNCCc2cccc(Oc3ccccc3)c2)[C@@H](O)[C@H]1O` [326 (229), (1R,2S,3R,5R)-3-(4-(methylamino)-7H-pyrrolo[2,3-d]pyrimidin-7-yl)-5-((2-(3-((3-phenoxyphenethyl)amino)propyl)-1H-imidazol-1-yl)methyl) cyclopentane-1,2-diol] registered a 50% inhibitory concentration (IC50) of over 10 µM. The Kd in assay [2] is over 1 µM. In addition, in assay [3], the ΔTm at 500 µM is at most 10 °C.

`Nc1ncnc2c1c(-c1ncn[nH]1)cn2[C@@H]1C[C@H](CNCCCNCCc2ccccc2)[C@@H](O)[C@H]1O` [475 (349), (1R,2S,3R,5R)-3-(4-amino-5-(1H-1,2,4-triazol-5-yl)-7H-pyrrolo[2,3-d]pyrimidin-7-yl)-5-(((3-(phenethylamino)propyl)amino)methyl) cyclopentane-1,2-diol] registered an IC50 in assay [1] of 0.1 to 1 µM. The Kd in assay [2] was in the range of 0.01 to 0.1 µM. Moreover, in assay [3], the ΔTm at 500 µM fell in the range of 15 to 20 °C.

`Nc1ncnc2c1ncn2[C@@H]1O[C@H](C(=O)NCCCNC(=O)Cc2ccccc2)[C@@H](O)[C@H]1O` [303 (200)]: the IC50 in assay [1] is over 10 µM. The Kd in assay [2] is over 1 µM. Also, the ΔTm at 500 µM in assay [3] was at most 10 °C.

Take `CNc1ncnc2c1ccn2[C@@H]1C[C@H](CNCC(F)(F)CNCCc2ccc3ccccc3c2)[C@@H](O)[C@H]1O` [357 (261), (1S,2R,3R,5R)-3-(((2,2-difluoro-3-((2-(naphthalen-2-yl)ethyl)amino)propyl)amino)methyl)-5-(4-(methylamino)-7H-pyrrolo[2,3-a]pyrimidin-7-yl) cyclopentane-1,2-diol]: in assay [1], the concentration for half-maximal inhibition (IC50) was over 10 µM. In assay [2], the Kd was over 1 µM. Moreover, the ΔTm at 500 µM in assay [3] was at most 10 °C.

Turning to `CCC(=O)NCCCNC(=O)[C@H]1O[C@@H](n2cnc3c(N)ncnc32)[C@H](O)[C@@H]1O` [305 (204), (2,3S,4R,5R)-5-(6-amino-9//-purin-9-yl)-3,4-dihydroxy-N-(3-propionamidopropyl) tetrahydrofuran-2-carboxamide], in assay [1], the IC50 is over 10 µM. In addition, the Kd in assay [2] was over 1 µM. In addition, in assay [3], the ΔTm at 500 µM is at most 10 °C.

For the compound `CCN(CCCNCCc1ccc2ccccc2c1)C[C@H]1C[C@@H](n2ccc3c(NC)ncnc32)[C@H](O)[C@@H]1O` [375 (279), (1S,2R,3R,5R)-3-((ethyl(3-((2-(naphthalen-2-yl)ethyl)amino)propyl)amino)methyl)-5-(4-(methylamino)-7H-pyrrolo[2,3-d]pyrimidin-7-yl) cyclopentane-1,2-diol], the IC50 in assay [1] is over 10 µM. In addition, the Kd in assay [2] lay within 0.1 to 1 µM. In assay [3], the ΔTm at 500 µM was 10 to 15 °C.

In the case of `CNc1ncnc2c1ccn2[C@@H]1C[C@H](C(=O)NCC2CCCNC2)[C@@H](O)[C@H]1O` (stereo partly drawn) [348 (252), (1S,2R,3S,4R)-2,3-dihydroxy-4-(4-(methylamino)-7H-pyrrolo[2,3-d]pyrimidin-7-yl)-N-(piperidin-3-ylmethyl) cyclopentane-1-carboxamide], the IC50 in assay [1] was over 10 µM. The Kd in assay [2] was over 1 µM. In assay [3], the ΔTm at 500 µM is at most 10 °C.

In assay [1], `CNc1ncnc2c1ccn2[C@@H]1C[C@H](CN(CCCNCCc2ccccc2)c2cnn(C)c2)[C@@H](O)[C@H]1O` [441 (313), (1S,2R,3R,5R)-3-(((1-Methyl-1H-pyrazol-4-yl)(3-(phenethylamino)propyl)amino)methyl)-5-(4-(methylamino)-7H-pyrrolo[2,3-d]pyrimidin-7-yl) cyclopentane-1,2-diol] showed an IC50 of over 10 µM. Further, in assay [2], the Kd is over 1 µM. Also, the ΔTm at 500 µM in assay [3] was at most 10 °C.

As to `CNc1ncnc2c1ccn2[C@@H]1C[C@H](CSCCCNCCc2ccccc2)[C@@H](O)[C@H]1O` [427 (299), (1R,2S,3R,5S)-3-(4-(methylamino)-7H-pyrrolo[2,3-d]pyrimidin-7-yl)-5-(((3-(phenethylamino)propyl)thio)methyl) cyclopentane-1,2-diol], the half-maximal inhibitory concentration (IC50) in assay [1] lay in the range of 1 to 10 µM. Also, the Kd in assay [2] is over 1 µM. Moreover, the ΔTm at 500 µM in assay [3] is at most 10 °C.

As for `CC1CCNc2ncnc3c2c1cn3[C@@H]1C[C@H](CN)[C@@H](O)[C@H]1O` (stereo partly drawn) [Compound 629, (1S,2R,3R,5R)-3-(Aminomethyl)-5-(9-methyl-6,7,8,9-tetrahydro-2H-2,3,5,6-tetraazabenzo[cd]azulen-2-yl)cyclopentane-1,2-diol], the half-maximal inhibitory concentration (IC50) in assay [1] was over 10 µM. The Kd in assay [2] was over 1 µM. Further, the ΔTm at 500 µM in assay [3] was at most 10 °C.

Regarding `Nc1ncnc2c1c(Br)cn2[C@@H]1C[C@H](CNC[C@@H]2CCCNC2)[C@@H](O)[C@H]1O` [456 (328), (1R,2S,3R,5R)-3-(4-Amino-5-bromo-7H-pyrrolo[2,3-d]pyrimidin-7-yl)-5-(((((R)-piperidin-3-yl)methyl)amino)methyl) cyclopentane-1,2-diol], in assay [1], the half-maximal inhibitory concentration (IC50) is over 10 µM. In assay [2], the Kd was over 1 µM. For the same compound, the ΔTm at 500 µM in assay [3] lay within 10 to 15 °C.

In turn, `Nc1ncnc2c1c(-c1ccncc1)cn2[C@@H]1C[C@H](CNCCCNCCc2ccccc2)[C@@H](O)[C@H]1O` [470 (344), (1R,2S,3R,5R)-3-(4-Amino-5-(pyridin-4-yl)-7H-pyrrolo[2,3-d]pyrimidin-7-yl)-5-(((3-(phenethylamino)propyl)amino)methyl) cyclopentane-1,2-diol] came in with an IC50 in assay [1] of 0.1 to 1 µM. The Kd in assay [2] was 0.1 to 1 µM. In addition, the ΔTm at 500 µM in assay [3] was 10 to 15 °C.

The compound `CNc1ncnc2c1ccn2[C@@H]1C[C@H](CNCCCNCCc2cccc(Oc3ccccc3)c2)[C@@H](O)[C@H]1O` [287 (184)] had a 50% inhibitory concentration (IC50) in assay [1] of 1 to 10 µM. Moreover, in assay [2], the Kd fell in the range of 0.1 to 1 µM. In assay [3], the ΔTm at 500 µM was 10 to 15 °C.

The compound `Nc1ncnc2c1c(Br)cn2[C@@H]1C[C@H](C(=O)NC[C@H]2CCCNC2)[C@@H](O)[C@H]1O` [453 (325), (1S,2R,3S,4R)-4-(4-Amino-5-bromo-7H-pyrrolo[2,3-d]pyrimidin-7-yl)-2,3-dihydroxy-N-(((S)-piperidin-3-yl)methyl) cyclopentane-1-carboxamide] yielded a half-inhibitory concentration (IC50) in assay [1] of over 10 µM. The Kd in assay [2] was 0.1 to 1 µM. The ΔTm at 500 µM in assay [3] lay in the range of 10 to 15 °C.

Take `CNc1ncnc2c1ccn2[C@@H]1C[C@H](CN(C[C@H]2CCCNC2)c2cncs2)[C@@H](O)[C@H]1O` [438 (310), (1R,2S,3R,5R)-3-[4-(Methylamino)pyrrolo[2,3-d]pyrimidin-7-yl]-5-({[(3S)-piperidin-3-ylmethyl](1,3-thiazol-5-yl)amino}methyl) cyclopentane-1,2-diol]: the IC50 in assay [1] is over 10 µM. Also, the Kd in assay [2] was over 1 µM. The ΔTm at 500 µM in assay [3] was at most 10 °C.

These data come from patent publication US20250188110A1, “SPECIFIC SMALL MOLECULE INHIBITORS THAT BLOCK KMT9 METHYLTRANSFERASE ACTIVITY AND FUNCTION” (ALBERT-LUDWIGS-UNIVERSITÄT FREIBURG, priority 2021, published 2025).
